Read-outs that look alike come from different tables or passages of the source.
Columns and labels:
HepG2 cells [1] = tested on: HepG2 cells
Procedure: (§1) To compare the effects of flow on response of HepG2 cells to Tamoxifen, cells were treated in the wells of the fluidics device where the drug was applied either to the source well at two different rates (2× and 3×), or was applied directly to individual wells in the absence of flow (static). For each condition, HepG2 cells were seeded into the individual wells of the fluidics device at a density of 30,000 cells per well in 50 uL media. This density corresponded to approximately 60% confluence. […] HepG2 cells in a fluidics device were treated with increasing concentrations of Tamoxifen over time. 150 uM of Tamoxifen was infused into the source well of the fluidics device either 2 times per day (2×) or three times per day (3×). Two acellular rows were infused with 1 uM Fluorscein to enable calculation of absolute concentration at any given time. The reagent CellTox™ Green was used to monitor cellular toxicity. Area under the curve values for each timepoint were obtained and plotted against effect expressed as a % maximum of (treated/control). Data was pooled together to obtain a single plot. EC50 values were calculated by a Sigmoid EMax model in PKSolver.
(§2) For the 2× and 3× experiment, to utilize Fluorescein as a standard for concentration, rows A and B remained acellular. After acclimating one day, media was changed to media containing a 1:2000 dilution of CellTox™ Green using volume of 100 uL per well. 400 uL of CellTox™ Green containing media was also added to the source well. Fluidic connections were allowed to form and stabilize for 30 minutes at 37° C. in a humidified incubator. Once fluid connections in each row was confirmed, 200 uL of media containing CellTox™ Green with either 150 uM Tamoxifen in 0.1% DMSO or 0.1% DMSO alone was added to the source well. To rows A&B, 200 uL of 1 uM Fluorescein in 0.1% DMSO was added to the source well. For all conditions, fluorescence was monitored using a Tecan Infinite Pro M1000 multimode plate reader optimized for Z-heights focal plane. For the 2× and 3× plates, media flow was maintained by syphoning 100 uL from well 11 and applying 100 uL fresh dosing solution to the source well at cadence corresponding to twice pre day (2×) or three times per day (3×).
(§3) For static fluid conditions, after seeding, cells acclimated for one day and then media was changed to 50 uL of media containing the noted concentration of Tamoxifen in 0.1% DMSO or 0.1% DMSO alone. Incubation proceeded for 24 hours where analysis of fluorescence determined the degree of cell death in each well. Nine replicates of each concentration were averaged.
(§4) For determining the concentration at any given time in the 2× and 3× flow plates, the RFU values obtained from the a-cellular Fluorescein control rows were averaged for each column and an actual Fluorescein concentration was determined using the Fluorescein Standard curve (see FIG. 33). The starting concentration of Fluorescein was 1 uM and the starting concentration of Tamoxifen was 150 uM therefore, the amount of fluorescein in each well was multiplied by 150 to obtain the corresponding concentration of Tamoxifen. The area under the curve (AUC) for each timepoint was obtained by multiplying the concentration value by the time in hours since the last time point using the AUCt function in PKSolver. For static conditions, the concentration was constant for the entire treatment time, therefore to obtain AUC the concentration was multiplied by 24 hours. […]

cultured cells = experiment: Viable cells by CellTiter-Glo, static plates versus fluidics device cultured cells treated over 7 and 9 days; assay type: cell-based
Excerpt: Referring to FIG. 46, a comparison of static plates and fluidics device 100 cultured cells treated with acetaminophen (APAP) over 7 and 9 days is depicted. CellTiter-Glo was used to measure viable cells. Data is normalized to vehicle (DMSO) control.

HepG2 cells [2] = experiment: Cytotoxicity of HepG2 cells with CellTox Green, fluidics device (flow) versus static culture, EC50 based on AUC exposure
Procedure: as §1, §2, §3, §4

| SMILES | Observed EC-50 in downstream wells versus expected when using standard static culture methods (HepG2 cells [1]) | what the observed EC50 suggests (effect of metabolism on cytotoxicity) (HepG2 cells [1]) | toxicity (viable cells, normalized to vehicle control) (cultured cells; fluidics device, Day 7) | toxicity (viable cells, normalized to vehicle control) (cultured cells; fluidics device, Day 9) | toxicity (viable cells, normalized to vehicle control) (cultured cells; static plate, Day 9, 2.5 mM) | toxicity (viable cells, normalized to vehicle control) (cultured cells; static plate, Day 9, highest concentration 5 mM) | toxicity (viable cells, normalized to vehicle control) (cultured cells; static plates, Day 7) | sensitivity of HepG2 cells in the flow system relative to static systems (comparison of AUC EC-50s) (HepG2 cells [2]; CellTox Green, flow system less sensitive than static) | Observed EC-50 in downstream wells versus expected when using standard static culture methods (HepG2 cells [2]; fluidics device downstream wells) | what the observed EC50 suggests (effect of metabolism on cytotoxicity) (HepG2 cells [2]; fluidics device downstream wells versus static) |
| --- | --- | --- | --- | --- | --- | --- | --- | --- | --- | --- |
| CC(=O)Nc1ccc(O)cc1 [APAP, Acetaminophen] | different from expected | bio-activation of a toxic intermediate | downstream cell death effect | More pronounced downstream metabolite effect | marginal effect | obvious cell death | marginally detectable only at highest concentration |  |  |  |
| CC/C(=C(\c1ccccc1)c1ccc(OCCN(C)C)cc1)c1ccccc1 [Tamoxifen] |  |  |  |  |  |  |  | approximately 4 fold | different from expected | deactivation |

Reference: US9829499B2, “Method and related systems for use with a fluidics device” (SciKon Innovation, Inc., priority 2015, dated 2017)
